“And” between values parts separate entries of the source, which are not always exact repeats. Identical values can stand only once. Like-named read-outs stand apart in the source and are kept apart here.
Legend:
[1] = tested on: lentiviral vector exposing the SARS-CoV-2 Spike protein, Wuhan isoform; type: cell-based; conditions: 5 µM, 4 h pre-incubation, HEK293-ACE2, Wuhan Spike
[2] = target: T1, recombinant human ACE2 (rhACE2) (Homo sapiens, UniProt Q9BYF1); assay: Surface plasmon resonance direct binding assay; conditions: 10 µM injected on immobilized rhACE2
T1 construct: purchased Acrobiosystem
Method: Recombinant human ACE2-Fc tag (rhACE2) (Acrobiosystem) at 5 μg/mL in PBST was captured on a HC30M (Xantec) sensor chip after the immobilization of anti-Fc antibody (Biorad) at 25 μg/mL in acetate buffer pH 5.0 by classic amine coupling chemistry on a NHS/EDC activated surface, reaching a final immobilization level of ~ 1000 RU. Simultaneously, a mix of IgG antibodies at 25 μg/mL in acetate buffer pH 5.0 was immobilized on a parallel surface and used as reference.
To test the direct binding of rhACE2 and lurasidone, the drug was injected at 10 µM in PBST 0.1% DMSO for 200 seconds at 30 μl/min on both surfaces. In a different channel, we also flowed SARS-CoV-2 Spike protein RBD (Wuhan isotype) at 10 nM in PBST as a positive control.

[3] = Cell viability assay on MRC-5 cells; type: cell-based; conditions: human, same conditions as antiviral assay
Method: Pre-seeded MRC-5 cells were treated with the drug at concentrations ranging from 1000 to 12.3 μM or equal volumes of DMSO as control, under the same experimental conditions for the antiviral assays. After incubation, the CellTiter 96 Proliferation Assay Kit (Promega, Madison, WI, USA) was used to determine the effect of lurasidone on cell viability. The effect on cell viability was expressed as a percentage, by comparing absorbances of treated cells with those of cells incubated with DMSO-treated control wells.
(§1) All data were analyzed with GraphPad Prism version 8.00 software. Results were expressed as mean values for three independent experiments performed in duplicate. […] Selectivity indexes were calculated as SI = CC50/EC50. The Student’s T-test was used to compare viral titers in virus inactivation assay. The viral titers of control and treated samples in time-of-addition assays were compared using a one-way analysis of variance (ANOVA) and a post-hoc Bonferroni test. Significance was set at p value <0.05 (*), <0.01 (**) and <0.001 (***).

[4] = target: T2, 3CL-Pro SARS-CoV-2 (Severe acute respiratory syndrome coronavirus 2, UniProt P0DTD1); assay: biochemical
T2 construct: The SARS-CoV-2 nsp5 protease activity was measured in black 384 well plates

[5] = tested on: HCoV-OC43; assay: HCoV-OC43 virus inactivation assay; type: cell-based; conditions: 50 µM with 10^5 FFU for 2 h at 34°C
[6] = tested on: ACE2 levels in HEK293-ACE2 cells; assay: Western blot analysis of ACE2 expression; type: cell-based, Human; conditions: 5 µM, 24 h, HEK293-ACE2 cell lysates
Method: HEK293-ACE2 cells were seeded (2.4 x 10^5 cells/well) on 12-well plates in complete DMEM medium with 10% FBS and incubated for 24 hours at 37°C in humidified 5% CO2. The medium was then replaced with a fresh one containing 5 µM lurasidone. Control cells were treated with an equivalent volume of vehicle only. After incubation for 3, 6, and 24 hours at 37°C in humidified 5% CO2 the medium was removed, the cells collected and lysed for 15 min at 4°C with 20 mM Tris-HCl, pH 7.5, containing 150 mM NaCl, 1 mM Na2EDTA, 1 mM EGTA, 1% NP-40, 1% sodium deoxycholate, 2.5 mM sodium pyrophosphate, 1 mM β-glycerophosphate, 1 mM Na3VO4 and 1 µg/ml leupeptin. Samples were centrifuged for 10 min at 16,100 x g and the protein content was quantified by using a BCA protein assay kit (Thermofisher, Rockford, USA). 10 µg of total proteins were loaded in each lane, immunoblotted using 10% bis-Tris gel (Invitrogen, Waltham, MA, USA), and transferred to a PVDF membrane (Millipore, Vimodrone, Milan, Italy). The membranes were incubated overnight at 4°C with an anti-ACE2 AC18Z mouse monoclonal antibody (1:200, Santa Cruz Biotechnology, Santa Cruz, CA, USA) or anti-β-actin mouse monoclonal antibody (1:5000, Sigma Aldrich). Peroxidase-conjugated anti-mouse IgG (1:5000, Sigma Aldrich) was used as the secondary antibody. Hybridization signals were detected with a ChemiDoc XRS Touch Imaging System (Bio-Rad).

[7] = Cell viability, MTT assay; type: cell-based, Human; conditions: human, HEK293-ACE2 cells, 10 µM, 24 hours administration
Method: (§2) HEK293-ACE2 cells were seeded (2 x 10^4 cells/well) on 96-well plates in a complete DMEM medium with 10% FBS. After incubation for 24 hours at 37°C in humidified 5% CO2, the medium was replaced with a fresh one containing lurasidone previously dissolved in Milli-Q water at 0.1 – 100 µM. Control cells were treated with an equivalent volume of vehicle only. Cells were incubated for 24 hours at 37°C in humidified 5% CO2, then the medium was replaced with a fresh one without lurasidone. After an additional incubation of 24 hours at 37°C in humidified 5% CO2, HEK293-ACE2 cells were treated with 5 mg/ml 3-(4,5-dimethylthiazol-2-yl)-2,5 diphenyltetrazolium bromide (MTT) (Sigma Aldrich, St. Louis, MO, USA, #M5655-1G) in 5 mM Phosphate Buffered Saline (PBS), pH 7.4. After incubation for 4 hours at 37°C, MTT was removed, and the cells resuspended in isopropanol containing 0.04 M HCl. The absorbance of the samples was determined at 560 nm using a spectrophotometer (Infinite M200, Tecan, Männedorf, Switzerland), and the cell viability was expressed as a percentage of Vehicle-treated cells.

[8] = tested on: HEK293-ACE2 cells; assay: Cell viability, MTT assay; type: cell-based, Human; conditions: 100 µM (maximum tested dose), 24 hours administration
Method: as §2

[9] = tested on: SARS-CoV-2; assay: microbe, parasite or virus in culture; type: cell-based
[10] = tested on: lentiviral vector exposing the SARS-CoV-2 Spike protein, B.1.1.7 UK isoform; type: cell-based; conditions: 1 µM, 4 h pre-incubation, HEK293-ACE2, B.1.1.7 UK Spike
[11] = target: T3, RdRp SARS-CoV-2 (Severe acute respiratory syndrome coronavirus 2, UniProt P0DTD1); assay: biochemical
T3 construct: SARS-CoV-2 RdRp was expressed and purified as described; made in house

[12] = tested on: lentiviral vector exposing the SARS-CoV-2 Spike protein, B.1.351 SA isoform; type: cell-based; conditions: 1 or 5 µM, 4 h pre-incubation, HEK293-ACE2, B.1.351 SA Spike
[13] = tested on: HCoV-OC43; assay: HCoV-OC43 antiviral focus reduction assay; type: cell-based
Method: The antiviral efficacy of lurasidone was determined by focus reduction assay, as described elsewhere ([Milani et al., 2021]). Briefly, MRC-5 sub-confluent cells in 96-well plates were infected with HCoV-OC43 at a multiplicity of infection (MOI) of 0.001 FFU/cell and concurrently treated with increasing concentrations of drug (100 to 0.12 µM). After incubation at 34°C for 16 hours, infected foci were visualized with an indirect immunocytochemistry procedure, using a primary antibody directed against the nucleoprotein of HCoV-OC43 (MAB9013, Merck KGaA, Darmstadt, Germany) or a primary antibody directed against the dsRNA (10010500, Nordic-MUbio, Susteren, Netherlands).
as §1

[14] = parameters: method as in Bawa and Scarff, 2015; conditions: patients, minimal changes in the metabolic profile; ref Bawa and Scarff, 2015; cited from earlier work
[15] = tested on: SARS-CoV-2; assay: SARS-CoV-2 virus inactivation (virucidal) assay; type: cell-based; conditions: 5 μM incubated with SARS-CoV-2 for 2 hours, Vero E6 plaque assay
[16] = tested on: HCoV-OC43; assay: HCoV-OC43 entry assay; type: cell-based; conditions: 100-0.4 μM during virus entry, MRC-5, MOI 0.05
Method: The assay evaluates whether the drug inhibits the entry of virus into host cells. First, a fixed inoculum of HCoV-OC43 at MOI of 0.05 was allowed to attach to prechilled confluent cells, for 20 min at 4°C. Cells were then washed with cold medium three times to remove unbound virus, treated with serial dilutions of lurasidone (from 100 to 0.4 μM), and incubated for 1 h at 34°C to allow virus entry. After incubation, outer virions were removed with a 30 second treatment of citrate buffer (pH 3.0). Then, cells were washed with warm medium three times and treated as for the antiviral assay.

[17] = tested on: HCoV-OC43; assay: HCoV-OC43 time-of-addition assay; type: cell-based; conditions: 50 µM; for antiviral activity, virus released in supernatant: MRC-5, MOI 0.1, 24 hours post-infection
[18] = target: T4, PL-Pro SARS-CoV-2 (Severe acute respiratory syndrome coronavirus 2, UniProt P0DTD1); assay: Biochemical assay for SARS-CoV-2 PL-Pro
T4 construct: purified recombinant SARS-CoV-2 RdRp, 3CL-Pro and PL-Pro proteins

T1 sequence (Q9BYF1 18-805): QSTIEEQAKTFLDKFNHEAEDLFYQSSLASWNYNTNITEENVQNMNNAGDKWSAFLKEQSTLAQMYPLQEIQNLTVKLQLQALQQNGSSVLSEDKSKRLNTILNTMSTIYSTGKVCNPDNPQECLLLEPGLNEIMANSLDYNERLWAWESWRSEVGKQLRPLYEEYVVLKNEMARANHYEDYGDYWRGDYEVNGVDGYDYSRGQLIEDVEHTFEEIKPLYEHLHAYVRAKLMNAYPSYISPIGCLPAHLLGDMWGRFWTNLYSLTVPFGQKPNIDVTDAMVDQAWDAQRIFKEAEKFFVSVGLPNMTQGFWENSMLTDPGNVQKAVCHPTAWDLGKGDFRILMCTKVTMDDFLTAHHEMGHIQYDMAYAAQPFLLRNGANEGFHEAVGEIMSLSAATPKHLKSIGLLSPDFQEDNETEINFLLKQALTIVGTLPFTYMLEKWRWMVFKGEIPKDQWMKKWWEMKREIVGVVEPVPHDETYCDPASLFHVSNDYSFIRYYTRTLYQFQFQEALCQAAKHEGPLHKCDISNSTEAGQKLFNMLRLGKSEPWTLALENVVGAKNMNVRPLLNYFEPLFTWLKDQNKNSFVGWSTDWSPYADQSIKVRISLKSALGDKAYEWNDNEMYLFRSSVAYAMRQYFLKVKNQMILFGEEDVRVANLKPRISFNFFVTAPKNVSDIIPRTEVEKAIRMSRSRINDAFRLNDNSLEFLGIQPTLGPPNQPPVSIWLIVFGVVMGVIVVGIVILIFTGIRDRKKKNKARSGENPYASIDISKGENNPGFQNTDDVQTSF

O=C1[C@@H]2[C@H]3CC[C@H](C3)[C@@H]2C(=O)N1C[C@@H]1CCCC[C@H]1CN1CCN(c2nsc3ccccc23)CC1 [Lurasidone, lurasidone]
inhibition of transduction (GFP-positive cells) [1]: active
direct binding to rhACE2 (SPR) [2]: not able to bind
CC50 [3]: > 1000 µM
IC50 [4]: > 100 µM
remaining activity at 100 µM ([4]; in the presence of 100 µM, read-out: Percentage of control activity, 3CL-Pro): 87%
intrinsic virucidal activity [5]: not endowed with intrinsic virucidal activity
modification in the ACE2 levels [6]: no significant modification
viability at 24 h, 10 µM [7]: ~80%
toxicity [8]: ~ 40%
effect on viral replication [9]: did not affect viral replication
inhibition of viral replication [9]: 78% and 79% and 40%
inhibition at 5 µM ([9]; Severe acute respiratory syndrome coronavirus 2, 24 h, read-out: inhibition of viral replication): 76%
inhibition of transduction (GFP-positive cells) [10]: able to inhibit
IC50 ([11]; 50 nM enzyme): > 100 µM
remaining activity at 100 µM ([11]; in the presence of 100 µM, read-out: Percentage of control activity, RdRp): 100%
inhibition of transduction (GFP-positive cells) [12]: not effective
EC50 ([13]; Betacoronavirus 1, OC43, MRC5, 16 h, read-out: EC50 (mean ± SD), viral marker NP (nucleoprotein), MRC-5 cells, MOI 0.001, 16 hours): 8.3 µM
EC50 ([13]; Betacoronavirus 1, OC43, MRC5, 16 h, read-out: EC50 (mean ± SD), viral marker dsRNA, MRC-5 cells, MOI 0.001, 16 hours): 8.5 µM
EC90 ([13]; Betacoronavirus 1, OC43, MRC5, read-out: EC90 (mean ± SD), viral marker NP (nucleoprotein), MRC-5 cells): 23.5 µM
EC90 ([13]; Betacoronavirus 1, OC43, MRC5, read-out: EC90 (mean ± SD), viral marker dsRNA, MRC-5 cells): 11.9 µM
EC50 ([13]; Betacoronavirus 1, OC43, both markers (NP and dsRNA)): ~8 µM
EC99 dose ([13]; MRC-5 cells, HCoV-OC43): 50 µM
SI (CC50/EC50) ([13]; viral marker NP): >120.5
SI (CC50/EC50) ([13]; viral marker dsRNA): >117.6
tolerability in clinical trials [14]: good tolerability
virucidal activity [15]: did not show any significant virucidal activity
inhibition of virus entry into the host cell [16]: does not act during the early steps of virus infection
reduction of virus titer ([17]; 18 hours post-infection treatment, p < 0.001): significant reduction
antiviral activity, virus released in supernatant ([17]; co-treatment 1 hour during virus inoculum): not active
inhibition of virus production ([17]; post-treatment 1, 4, 18 hours after infection, MRC-5, MOI 0.1): significantly inhibited virus production
antiviral activity, virus released in supernatant ([17]; pre-treatment 1 hour before infection): not active
IC50 [18]: 0.12 ± 0.03 µM

— PMC11625747, “The antipsychotic drug lurasidone inhibits coronaviruses by affecting multiple targets” (Frontiers in Cellular and Infection Microbiology, 2024)
